From patent US8466122B2, “Trialkyl cationic lipids and methods of use thereof” (Protiva Biotherapeutics, Inc., priority 2010, dated 2013)

System: ApoB mRNA level in the liver
Test: Liver ApoB mRNA knockdown by 1:57 SNALP with ApoB siRNA in mice (QuantiGene assay, normalized to GAPDH mRNA)
Format: in vivo, female BALB/c mice
Details: IV bolus 0.05 mg/kg siRNA, mouse liver 48 h after dosing, compared to SNALP containing the C2K benchmark cationic lipid
Description: In particular, the objective of this study was to assess the ApoB dose response gene silencing activity in the mouse liver of 1:57 SNALP containing various novel trialkyl cationic lipids of Formula I. The ApoB siRNA sequence used in this study is provided in Table 1.
Just prior to the first treatment, animals were weighed and dose amounts were calculated based on the weight of individual animals (equivalent to 10 mL/kg, rounded to the nearest 10 μL). The test article was administered by IV injection through the tail vein once on Day 0 (1 dose total per animal).
Animals were sacrificed on Day 2, 48 h after test article administration. […] A brief necropsy was performed and observations recorded. […]
Body weight was reported for individual animals in addition to group mean and standard deviation of the group mean. Data were expressed in terms of the measured unit (grams) and the group mean difference from PBS vehicle control treatment was calculated for this expression (include SD). For body weights, individual animal data were also expressed as % of pre-treatment value and the group means were expressed as % change from pre-treatment value (include SD). […] Drug activity was measured using a QuantiGene assay for ApoB mRNA level in the liver (normalized to GAPDH mRNA level). […] Data were expressed in terms of the measured unit as well as difference from PBS vehicle control treatment. […]

CCCCC/C=C\C/C=C\CCCCCCCCC(OC(=O)CCCCN(C)C)C(O)(CCCCCCCC/C=C\C/C=C\CCCCC)CCCCCCCC/C=C\C/C=C\CCCCC (stereo not shown) [Compound 13-B4, (6Z,9Z,29Z,32Z)-20-hydroxy-20-((9Z,12Z)-octadeca-9,12-dienyl)octatriaconta-6,9,29,32-tetraen-19-yl 5-(dimethylamino)pentanoate]
liver ApoB mRNA knockdown activity (ApoB silencing activity): unexpectedly improved ApoB silencing activity
